The test system of experiment [1] is HCC1954. Nature of the experiment: Antitumor activity against human HCC1954 cells xenografted in NCR nude mouse model assessed as tumor growth inhibition at 25 mg/kg via oral gavage administered for 28 days in presence of trastuzumab/pertuzumab by caliper method. It is filed as functional. The following applies: HCC1954, 672 h, time 28 day, read-out: TGI. For orientation: Xenograft models place foreign cells or tissue in a host animal.

For experiment [2], the system named is HCC1954. Nature of the experiment: Antitumor activity against human HCC1954 cells xenografted in NCR nude mouse model assessed as tumor growth inhibition at 25 mg/kg via oral gavage administered for 28 days by caliper method. The settings on record: HCC1954, 672 h, time 28 day, read-out: TGI. The format is functional.

Here are results for one compound from ChEMBL document CHEMBL5252621, “Effective Combination Therapies for the Treatment of HER2 Cancer” (2023).

On to `C[C@H](Nc1ccc2c(c1)OCCn1cc(N3C(=O)OC[C@H]3C(F)F)nc1-2)C(N)=O` [INAVOLISIB], for which the inhibition in vivo at 25 mg/kg in the experiment with HCC1954 [1] was found to be 148%; in the experiment on HCC1954 [2], 122%.
